Laboratory results taken from patent publication US20210322327A1, “EXTRACELLULAR VESICLES COMPRISING STING-AGONIST” (Codiak BioSciences, Inc., priority 2018, published 2021).

Tests used:
STING pathway = STING pathway activation after intraperitoneal or intratumoral dose in B16F10 tumor-bearing mice; format: in vivo, C57BL/6 mice; conditions: 20 μg single IP dose
Method: Five groups of C57BL/6 mice (n=4 mice per group) were inoculated subcutaneously with 5×10^5 B16F10 murine melanoma cells. Eight days post-inoculation the mice were injected intraperitoneally (IP) with a single dose of either PBS, 20 μg ML RR-S2, 0.2 μg ML RR-S2, 0.2 μg ML RR-S2 loaded in PTGFRN-overexpressing exosomes (Exo STING IP), or intratumorally (IT) with a single dose of 0.2 μg ML RR-S2 loaded in PTGFRN-overexpressing exosomes (Exo STING IT). The exosome-encapsulated STING agonist formulations were loaded and quantitated as described in Example 1.

[1] = test system: ovalbumin (OVA)-reactive T-cells; assay: OVA-reactive memory T-cells by tetramer flow cytometry; format: in vivo, C57BL/6 mice; conditions: six days
Method: STING pathway agonism in dendritic cells enhances antigen presentation, IFNβ production, and recruits CD8+ memory T-cells to elicit a durable adaptive immune response. To determine whether Exo STING could induce a memory T-cell response to a defined antigen, an antigen-specific T-cell response study was carried out using purified ovalbumin (OVA). C57BL/6 mice were injected intraperitoneally with 200 μg OVA mixed with either PBS, 20 μg ML RR-S2, 0.2 μg ML RR-S2, or 0.2 μg ML RR-S2 loaded in PTGFRN-overexpressing exosomes (n=4-10 mice per group). Six days post-injection, spleens and mesenteric lymph nodes were collected, homogenized to a single-cell suspension, and live lymphocytes were enriched by density centrifugation. Isolated lymphocytes were analyzed by flow cytometry by measuring binding to immobilized tetrameric MHC class I bound to the OVA peptide SIINFEKL and phycoerythrin (PE) (iTAg Tetramer/PE—H-2 OVA; MBL®, Code #T03000). OVA-reactive memory T-cells were quantified by gating on PE, CD44, and CD8 positivity.

B16F10 cells = assay: B16F10 re-challenge on the opposite flank; format: in vivo, C57BL/6 mice; conditions: 20 μg group, re-challenged day 21, read day 39
From the text: STING pathway activation leads to memory T-cell recruitment and ultimately a durable adaptive immune response. To determine whether the anti-tumor effects in this study led to an immune response, the five animals in the high dose STING agonist and Exo STING groups were re-challenged on day 21 by transplantation of 5×10^5 B16F10 cells on the opposite flank. Five additional naïve mice were inoculated with the same tumor cell preparation and treated daily with PBS to ensure cell viability and growth kinetics. By day 39 (18 days post-challenge) all mice in the PBS group were sacrificed.

[2] = test system: IFNβ, CXCL9, CXCL10, IFNγ; serum cytokines; assay: Cytokine levels after subcutaneous injection in naïve mice; format: in vivo, C57BL/6 mice; conditions: 20 μg free, four hours
Method: To compare in vivo activity of free STING agonist and STING agonist-loaded exosomes beyond intratumoral dosing, naïve C57BL/6 mice were injected subcutaneously with PBS, exosomes, 20 μg of free 3-3 cAIMPdFSH or 0.2 μg 3-3 cAIMPdFSH loaded in PTGFRN-overexpressing exosomes. Four hours post-injection, lymph nodes, spleens, livers, and serum were collected and cytokine levels were measured.

B16F10 lung metastases = B16F10 lung metastases after intratumoral treatment of the subcutaneous tumor; format: in vivo, C57BL/6 mice; conditions: 20 μg intratumoral
From the text: Activation of the STING pathway promotes antigen presentation and induces a durable T-cell response, as shown in Examples 11 and 12. Thus, the immune memory response induced by EXOSTING™ may be sufficient to prevent tumor metastasis after a local administration in a primary tumor. To test this hypothesis, exosomes purified from HEK293SF cells overexpressing PTGFRN were loaded with the cyclic dinucleotide 3-3 cAIMPdFSH as described in Example 1. C57BL/6 mice were inoculated subcutaneously with 1×10^6 B16F10 melanoma cells on day zero and challenged with an additional tail vein injection of 1×10^5 B16F10 melanoma cells to seed lung metastases (n=8 mice per group). Five, eight, and eleven days post-inoculation the mice were injected intratumorally at the subcutaneous tumor with PBS, 20 μg 3-3 cAIMPdFSH, 120 ng 3-3 cAIMPdFSH, or either 120 ng, 12 ng, or 1.2 ng 3-3 cAIMPdFSH loaded in PTGFRN-overexpressing exosomes (Exo STING Agonist). […] Lungs from all mice were harvested, imaged, and counted for metastases. […] As little as 12 ng of Exo STING Agonist prevented lung metastasis to the same extent as 20 μg STING Agonist (FIGS. 46B and 47).

[3] = test system: B16F10 murine melanoma cells; assay: Dual flank B16F10 model, injected and contralateral tumors; format: in vivo, C57BL/6 mice
From the text: In addition, activation of the STING pathway induces the upregulation of immune pathway checkpoints, which subsequently reduce T-cell-mediated cell killing, and thus moderate the effects of STING pathway agonism as a therapeutic rationale (Cell Rep. 2015 May 19; 11(7):1018-30). To test both hypotheses, C57BL/6 mice were inoculated subcutaneously with 1×10^6 and 5×10^5 B16F10 murine melanoma cells into right and left flank of mice, respectively (n=5 mice per group). Seven, ten, and thirteen days post-inoculation, the tumor at right flank were injected intratumorally with exosomes, 20 μg of free 3-3 cAIMPdFSH, 0.1 μg of free 3-3 cAIMPdFSH, or 0.1 μg 3-3 cAIMPdFSH loaded in PTGFRN-overexpressing exosomes, with a control antibody (α-IgG; 10 mg/kg; BioLegend, Catalog #400559, Clone RTK3758) or an antagonistic antibody against PD-1 (a PD-1; 10 mg/kg; BioLegend, Catalog #114111, Clone RMPI-14). Antibodies were injected intraperitoneally. Tumor volumes were measured daily until day 21, and animals were sacrificed when tumor volume reached 2000 mm^3.

[4] = test system: B16F10 murine melanoma cells; assay: B16F10 tumor growth in C57BL/6 and STING knock-out mice; format: in vivo, C57BL/6 mice and C57BL/6-Tmem173^gt mice
Method: To confirm that the effects observed in FIGS. 54-58 were translated to anti-tumor activity, C57BL/6 mice and C57BL/6-Tmem173^gt mice were inoculated subcutaneously with 1×10^6 B16F10 murine melanoma cells (n=5 mice per group). Seven, ten, and thirteen days post-inoculation, the mice were injected intratumorally with PBS, exosomes, 20 μg of free 3-3 cAIMPdFSH, or 0.1 μg of 3-3 cAIMPdFSH loaded in PTGFRN-overexpressing exosomes. Tumor volumes were measured daily until day 19, and animals were sacrificed when tumor volume reached 2000 mm^3.

SMILES | IFNβ expression in tumor, pancreas and spleen (STING pathway) | OVA-reactive T-cells in spleen and mesenteric lymph nodes ([1]; 0.2 μg IP with 200 μg OVA) | OVA-reactive T-cells in spleen and mesenteric lymph nodes ([1]; 20 μg IP with 200 μg OVA) | animals in which re-challenge tumors failed to grow (B16F10 cells) | IFNβ gene expression in lymph nodes, spleens, livers [2] | lung lesions by histology (B16F10 lung metastases) | lung metastases compared to PBS (B16F10 lung metastases) | injected tumor growth ([3]; 0.1 μg free + IgG or Anti-PD1) | contralateral (not injected) tumor ([3]; 20 μg free) | contralateral tumor reduction with anti-PD1 ([3]; 20 μg free + anti-PD-1 10 mg/kg IP) | injected tumor growth ([3]; 20 μg free, regardless of anti-PD1) | tumor regression ([4]; C57BL/6-Tmem173^gt mice, 20 μg free) | tumor regression ([4]; C57BL/6 mice, free, printed 20 g, days 7, 10, 13)
Nc1ncnc2c1ncn2[C@@H]1O[C@@H]2COP(O)(=S)O[C@@H]3C(O)[C@@H](COP(O)(=S)O[C@H]2[C@H]1O)O[C@H]3n1cnc2c(N)ncnc21 (stereo partly shown) [ML RR-S2 CDA] | induced IFNβ expression in the tumor, pancreas, and spleen above the PBS-treated group | no activity in the spleen and only a modest response in mesenteric lymph nodes | A greater proportion of OVA-reactive T-cells | four out of 5 |  |  |  |  |  |  |  |  | 
Nc1ncnc2c1ncn2[C@@H]1O[C@@H]2COP(=O)(S)O[C@H]3[C@@H](F)[C@H](n4cnc5c(=O)[nH]cnc54)O[C@@H]3COP(O)(=S)O[C@H]2[C@H]1F (stereo partly shown) [3-3 cAIMPdFSH, 3′3′-cAIMPdFSH] |  |  |  |  | significantly elevated | significant amount of lung lesions inside of lung | dramatically reduced | moderately potentiated | significant tumor reduction | more strengthened with anti-PD1 combination | Almost completely eliminated | no tumor regression was observed | dramatically improved tumor regression
